Reference: patent US20250057844A1, “METHODS OF TREATING NEOPLASTIC DISEASES” (SILLAJEN, INC., priority 2021, published 2025)
Where two headings read alike, the source gives them in different places.

Assays:
[1] = Second PK study: daily oral dose for 5 days, two formulations; type: in vivo, female Swiss Albino mice; conditions: for AUC(0-t): AUC0-24 h
Description: In a second study female Swiss Albino mice were administered daily oral dose of 5, 7.5, or 10 mg/kg of the compound of formula (I) for 5 days. […] PK samples were collected on day 5 for groups 1 to 6. Formulation 1 consisted of DMSO, cremophor EL, and 5% mannitol in water (10/10/80; v/v/v). Formulation 2 consisted of ethanol, PEG 400, and citric acid 20 mM (10/10/80; v/v/v). […] In each of the three studies blood was collected via the sephanous vein into K2-EDTA tubes kept on ice until centrifugation at 4° C. Plasma was stored at ap-proximately-80° C. […] PK parameters were calculated using Phoenix® WinNonLin 6.4. PK analysis was based on sparse sampling.

[2] = molecular target: biotinylated PLK1 (Homo sapiens, UniProt P53350); test: Target residence time assay (Biacore T200 surface plasmon resonance), PLK1; type: binding; conditions: SPR, 22° C.
Chain of biotinylated PLK1 (P53350 whole entry, the tested form may be a part): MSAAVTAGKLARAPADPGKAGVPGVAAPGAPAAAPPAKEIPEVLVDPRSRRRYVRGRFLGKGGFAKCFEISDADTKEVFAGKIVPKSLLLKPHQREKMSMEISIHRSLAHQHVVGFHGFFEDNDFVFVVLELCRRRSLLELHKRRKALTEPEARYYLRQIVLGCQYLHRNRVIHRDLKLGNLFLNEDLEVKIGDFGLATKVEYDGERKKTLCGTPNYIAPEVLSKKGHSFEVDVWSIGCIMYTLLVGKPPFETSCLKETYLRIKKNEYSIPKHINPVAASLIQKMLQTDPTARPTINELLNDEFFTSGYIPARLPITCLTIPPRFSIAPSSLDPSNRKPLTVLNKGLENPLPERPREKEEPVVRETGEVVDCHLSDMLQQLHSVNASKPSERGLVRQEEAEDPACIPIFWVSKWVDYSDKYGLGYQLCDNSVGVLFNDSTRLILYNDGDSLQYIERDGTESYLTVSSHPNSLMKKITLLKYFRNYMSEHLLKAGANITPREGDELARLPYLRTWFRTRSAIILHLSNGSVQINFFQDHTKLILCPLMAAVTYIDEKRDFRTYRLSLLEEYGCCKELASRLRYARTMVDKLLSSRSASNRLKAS
Description: The affinity, i.e. the equilibrium dissociation constant (KD) ([…]), of the compound of formula (I) against TTK and PLK1 were determined using a Biacore T200TM surface plasmon resonance instrument using recombinant expressed TTK kinase domain (amino acids 519-808) or biotinylated PLK1. The immobilization of TTK was performed as described in Maia et al. Annals of Oncology, 2015; 26:2180-2192. The immobilization of biotinylated PLKI was performed as described in Willemsen-Seegers et al. Journal of Molecular Biology, 2017; 429:574-586. The subsequent single cycle kinetic assays were performed at 22° C. using a compound concentration gradient of 1, 3.6, 10, 31.6 and 100 nM for TTK and 10, 31.6, 100, 316 and 1000 nM for PLK1, a contact time of 100 s and a flow rate of […]. The dissociation period was 1200-1800 s and a correction for an unstable surface using a blank run with buffer was performed.

[3] = Maximum tolerated dose (MTD) in mice; conditions: mouse, in vivo
[4] = molecular target: T1, tumor-derived TTK (Homo sapiens, UniProt P33981); test: Tumor TTK target occupancy in MDA-MB-231 xenograft-bearing mice; type: in vivo
T1 construct: TTK target occupancy was also measured in tumors derived from MDA-MB-231 xenograft-bearing mice; from tissue; host or cells: MDA-MB-231 xenograft tumours grown in mice
T1 sequence (P33981 1-857): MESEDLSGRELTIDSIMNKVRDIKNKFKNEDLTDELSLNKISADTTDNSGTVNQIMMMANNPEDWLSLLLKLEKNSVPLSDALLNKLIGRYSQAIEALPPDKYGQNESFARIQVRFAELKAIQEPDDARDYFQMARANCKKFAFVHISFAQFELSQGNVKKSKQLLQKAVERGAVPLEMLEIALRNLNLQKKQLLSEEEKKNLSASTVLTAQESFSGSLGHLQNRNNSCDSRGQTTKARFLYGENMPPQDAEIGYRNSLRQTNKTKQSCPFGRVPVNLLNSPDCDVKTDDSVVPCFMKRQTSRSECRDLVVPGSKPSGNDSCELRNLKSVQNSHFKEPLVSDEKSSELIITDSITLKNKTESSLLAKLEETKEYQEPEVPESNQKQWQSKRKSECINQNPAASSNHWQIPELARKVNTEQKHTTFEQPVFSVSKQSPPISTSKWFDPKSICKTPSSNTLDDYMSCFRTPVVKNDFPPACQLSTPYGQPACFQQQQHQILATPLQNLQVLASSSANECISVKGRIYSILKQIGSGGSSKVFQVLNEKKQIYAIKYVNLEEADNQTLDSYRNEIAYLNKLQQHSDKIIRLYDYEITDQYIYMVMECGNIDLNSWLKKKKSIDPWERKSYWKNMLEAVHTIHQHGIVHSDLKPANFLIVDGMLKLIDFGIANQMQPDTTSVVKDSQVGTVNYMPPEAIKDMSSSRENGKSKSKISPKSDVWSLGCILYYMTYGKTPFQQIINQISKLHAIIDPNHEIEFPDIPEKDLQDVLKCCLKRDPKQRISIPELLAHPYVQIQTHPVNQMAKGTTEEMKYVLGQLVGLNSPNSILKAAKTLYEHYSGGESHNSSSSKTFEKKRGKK
Description: Prolonged TTK target occupancy was also measured in tumors derived from MDA-MB-231 xenograft-bearing mice treated with intermittent i.v. dosing regimen of compound of formula (I). […]

[5] = day 5, daily oral 5 mg/kg, Formulation 1, female mice
[6] = day 5, daily oral 5 mg/kg, Formulation 2, female mice
[7] = day 5, daily oral 7.5 mg/kg, Formulation 1, female mice
[8] = day 5, daily oral 7.5 mg/kg, Formulation 2, female mice
[9] = day 5, daily oral 10 mg/kg, Formulation 1, female mice
[10] = day 5, daily oral 10 mg/kg, Formulation 2, female mice
[11] = female, Swiss Albino, mouse, plasma, po, 5 mg/kg, day 5, daily oral 5 mg/kg, Formulation 1, female mice
[12] = female, Swiss Albino, mouse, plasma, po, 5 mg/kg, day 5, daily oral 5 mg/kg, Formulation 2, female mice
[13] = female, Swiss Albino, mouse, plasma, po, 7.5 mg/kg, day 5, daily oral 7.5 mg/kg, Formulation 1, female mice
[14] = female, Swiss Albino, mouse, plasma, po, 7.5 mg/kg, day 5, daily oral 7.5 mg/kg, Formulation 2, female mice
[15] = female, Swiss Albino, mouse, plasma, po, 10 mg/kg, day 5, daily oral 10 mg/kg, Formulation 1, female mice
[16] = female, Swiss Albino, mouse, plasma, po, 10 mg/kg, day 5, daily oral 10 mg/kg, Formulation 2, female mice

`COc1cc(N2CCNCC2)ccc1Nc1ncc2c(n1)-n1ccc(C(=O)Nc3c(C)cccc3C)c1CC2` [compound of formula (I)] gave a Tmax ([1]; Swiss Albino, mouse, plasma, day 5, daily oral 5 mg/kg, Formulation 1, female mice, read-out: Tmax) of 2 h, a Tmax ([1]; Swiss Albino, mouse, plasma, day 5, daily oral 7.5 mg/kg, Formulation 1, female mice, read-out: Tmax) of 4 h and a Tmax ([1]; Swiss Albino, mouse, plasma, day 5, daily oral 10 mg/kg, Formulation 1, female mice, read-out: Tmax) of 4 h. The “% extrapolated” value [1, 5] was 8.33%, the AUCinf/Dose [1, 5] was 81.6 ng·h/mL/mg/kg and the AUClast/Dose [1, 5] was 74.8 (h*ng/mL)/(mg/kg). For the same compound, the Cmax/Dose [1, 5] was 5.16 (ng/mL)/(mg/kg), the “% extrapolated” value [1, 6] was 1.53% and the AUCinf/Dose [1, 6] was 116 ng·h/mL/mg/kg. For the same compound, the AUClast/Dose [1, 6] was 114 (h*ng/mL)/(mg/kg), the Cmax/Dose [1, 6] was 9.48 (ng/mL)/(mg/kg) and the “% extrapolated” value [1, 7] was 5.04%. For the same compound, the AUCinf/Dose [1, 7] was 50 ng·h/mL/mg/kg, the AUClast/Dose [1, 7] was 47.5 (h*ng/mL)/(mg/kg) and the Cmax/Dose [1, 7] was 6.03 (ng/mL)/(mg/kg). The “% extrapolated” value [1, 8] was 1.77%, the AUCinf/Dose [1, 8] was 82.4 ng·h/mL/mg/kg and the AUClast/Dose [1, 8] was 80.9 (h*ng/mL)/(mg/kg). For the same compound, the Cmax/Dose [1, 8] was 8.36 (ng/mL)/(mg/kg), the “% extrapolated” value [1, 9] was 7.41% and the AUCinf/Dose [1, 9] was 60.8 ng·h/mL/mg/kg. For the same compound, the AUClast/Dose [1, 9] was 56.3 (h*ng/mL)/(mg/kg), the Cmax/Dose [1, 9] was 4.01 (ng/mL)/(mg/kg) and the “% extrapolated” value [1, 10] was 12.7%. For the same compound, the AUCinf/Dose [1, 10] was 87 ng·h/mL/mg/kg, the AUClast/Dose [1, 10] was 76 (h*ng/mL)/(mg/kg) and the Cmax/Dose [1, 10] was 5.65 (ng/mL)/(mg/kg). For the same compound, the bioavailability ([1]; female, Swiss Albino, mouse, plasma, oral, multiple daily dose administration, based on i.v. exposure, read-out: oral bioavailability) was 18 to 41%, the AUC(0-inf) [1, 11] was 408 ng·h/mL and the Cmax [1, 11] was 25.8 ng/mL. The AUC(0-t) [1, 11] was 374 ng·h/mL, the bioavailability ([1]; female, Swiss Albino, mouse, plasma, po, 5 mg/kg, day 5, daily oral 5 mg/kg, Formulation 1, female mice, based on iv exposure, read-out: F (%)) was 29% and the half-life at 5 days ([1]; female, Swiss Albino, mouse, plasma, po, 5 mg/kg, day 5, daily oral 5 mg/kg, Formulation 1, female mice, read-out: Apparent T1/2 (converted)) was 7.8 h. For the same compound, the AUC(0-inf) [1, 12] was 579 ng·h/mL, the Cmax [1, 12] was 47.4 ng/mL and the AUC(0-t) [1, 12] was 570 ng·h/mL. For the same compound, the bioavailability ([1]; female, Swiss Albino, mouse, plasma, po, 5 mg/kg, day 5, daily oral 5 mg/kg, Formulation 2, female mice, based on iv exposure, read-out: F (%)) was 41%, the half-life ([1]; female, Swiss Albino, mouse, plasma, po, 5 mg/kg, day 5, daily oral 5 mg/kg, Formulation 2, female mice, read-out: Apparent T1/2 (converted)) was 4.02 h and the AUC(0-inf) [1, 13] was 375 ng·h/mL. The Cmax [1, 13] was 45.2 ng/mL, the AUC(0-t) [1, 13] was 356 ng·h/mL and the bioavailability ([1]; female, Swiss Albino, mouse, plasma, po, 7.5 mg/kg, day 5, daily oral 7.5 mg/kg, Formulation 1, female mice, based on iv exposure, read-out: F (%)) was 18%. For the same compound, the half-life ([1]; female, Swiss Albino, mouse, plasma, po, 7.5 mg/kg, day 5, daily oral 7.5 mg/kg, Formulation 1, female mice, read-out: Apparent T1/2 (converted)) was 5.31 h, the AUC(0-inf) [1, 14] was 618 ng·h/mL and the Cmax [1, 14] was 62.7 ng/mL. It also gave an AUC(0-t) [1, 14] of 607 ng·h/mL, a bioavailability ([1]; female, Swiss Albino, mouse, plasma, po, 7.5 mg/kg, day 5, daily oral 7.5 mg/kg, Formulation 2, female mice, based on iv exposure, read-out: F (%)) of 29% and a half-life ([1]; female, Swiss Albino, mouse, plasma, po, 7.5 mg/kg, day 5, daily oral 7.5 mg/kg, Formulation 2, female mice, read-out: Apparent T1/2 (converted)) of 3.79 h. It also gave an AUC(0-inf) [1, 15] of 608 ng·h/mL, a Cmax [1, 15] of 40.1 ng/mL and an AUC(0-t) [1, 15] of 563 ng·h/mL. It also gave a bioavailability ([1]; female, Swiss Albino, mouse, plasma, po, 10 mg/kg, day 5, daily oral 10 mg/kg, Formulation 1, female mice, based on iv exposure, read-out: F (%)) of 22%, a half-life ([1]; female, Swiss Albino, mouse, plasma, po, 10 mg/kg, day 5, daily oral 10 mg/kg, Formulation 1, female mice, read-out: Apparent T1/2 (converted)) of 5.81 h and an AUC(0-inf) [1, 16] of 870 ng·h/mL. For the same compound, the Cmax [1, 16] was 56.5 ng/mL, the AUC(0-t) [1, 16] was 760 ng·h/mL and the bioavailability ([1]; female, Swiss Albino, mouse, plasma, po, 10 mg/kg, day 5, daily oral 10 mg/kg, Formulation 2, female mice, based on iv exposure, read-out: F (%)) was 31%. For the same compound, the half-life ([1]; female, Swiss Albino, mouse, plasma, po, 10 mg/kg, day 5, daily oral 10 mg/kg, Formulation 2, female mice, read-out: Apparent T1/2 (converted)) was 7.66 h, the Tmax ([1]; female, Swiss Albino, mouse, plasma, day 5 of daily oral administration, read-out: median Tmax) was 2 to 4 h and the “target-residency on PLK1” value [2] was “just a few minutes”. For the same compound, the MTD ([3]; iv, 2QW) was 12.5 mg/kg, the MTD ([3]; iv, QW) was 25 mg/kg and the MTD ([3]; po, orally daily) was 7.5 mg/kg. The “time TTK completely occupied after last dose” value ([4]; IV twice-weekly, MTD dose, MDA-MB-231 tumors) was “at least 72 h” and the “time tumor-derived TTK fully drug-occupied after last administration” value ([4]; IV weekly MTD dosing, repeat experiment) was “up to 6 days”.
